Source: patent publication US20170368069A1, “USE OF 4-(4-FLUORO-2-METHOXYPHENYL)-N--1,3,5-TRIAZIN-2-AMINE FOR TREATING LEUKEMIAS” (Bayer Pharma Aktiengesellschaft, priority 2015, published 2017)
“And” between values parts separate entries of the source, which are not always exact repeats. Equal entries are not always repeated. “Also recorded” adds a separate entry of the source.

Legend:
MV4-11 [1] = test: Subcutaneous MV4-11 leukemia xenograft, efficacy and tolerability; assay type: in vivo, NOD/SCID mice
Protocol: (§1) The aim of the present experiments was to assess the in vivo efficacy and tolerability of Compound A′ in monotherapy in four leukemia models subcutaneously implanted in NOD/SCID mice.
(§2) The experiments included four in vivo efficacy experiments with female NOD/SCID mice bearing subcutaneous leukemia xenografts. Compound A′ was assessed at one dose level in monotherapy. Anti-tumor activity and tolerability of all groups were assessed using the vehicle control group as a reference.
(§3) Mouse strain, sex: NOD/SCID, female Animals supplied by: Harlan Total number of mice Efficacy test (implanted/randomized): 100/74 Approximate age at implantation: 5-7 weeks Approximate age at randomization: 6-9 weeks
(§4) The tumor models used in this study were derived from commercially available cell lines.
(§5) Leukemia cells were subcutaneously injected as cell suspensions into one flank of immunodeficient NOD/SCID mice under isofluorane anaesthesia (5*10^6 cells per injection). In the case of THP-1 cells, matrigel was used to increase implantation efficacy. For this, 1×10^8 leukemia cells were mixed with matrigel and an appropriate volume of the solution containing 5*10^6 cells was injected as described above.
At randomization, the volume of growing tumors was initially determined. […] The result of the randomization was documented and maintained with the experimental data. Animals not randomized were euthanized. The day of randomization is designated as day 0 of an experiment. […]
(§6) Mice were weighed twice a week. Relative body weights of individual mice in % were calculated by dividing the individual body weight on day X (BWX) by the individual body weight on day 0 (BW0) multiplied by 100 according to the formula: […]
(§7) Group median relative body weights were calculated as well, considering only the weights of mice that were alive on the day in question.
(§8) The tumor volumes were determined by two-dimensional measurement with a caliper on the day of randomization (day 0) and then twice weekly (i.e. on the same days on which mice were weighed). Tumor volumes were calculated according to the formulas: […]
(§9) Anti-tumor activity was evaluated as maximum tumor volume inhibition versus the vehicle control group. […]
(§10) Tumor inhibition for a particular day (T/C in %) was calculated from the ratio of the median RTV values of test versus control groups multiplied by 100.
The minimum (or optimum) T/C % value recorded for a particular test group during an experiment represents the maximum anti-tumor activity for the respective treatment. T/C values were calculated if at least 50% of the randomized animals in a group were alive on the day in question. […]

HL-60 [2] = test: Subcutaneous HL-60 leukemia xenograft, efficacy and tolerability; assay type: in vivo, NOD/SCID mice; details: 25 mg/kg/day p.o.
Protocol: as §1, §2, §3, §4
Leukemia cells were subcutaneously injected as cell suspensions into one flank of immunodeficient NOD/SCID mice under isofluorane anaesthesia (5*10^6 cells per injection). In the case of THP-1 cells, matrigel was used to increase implantation efficacy. […]
(§11) At randomization, the volume of growing tumors was initially determined. […]
as §6, §7, §8, §9
Tumor inhibition for a particular day (T/C in %) was calculated from the ratio of the median RTV values of test versus control groups multiplied by 100. […]

MV4-11 [3] = test: Proliferation assay, MV4-11; assay type: cell-based; details: Homo sapiens; MV4-11, acute myeloid leukemia, 11q23 positive; after 72 hours of incubation
KG-1 = test: Proliferation assay, KG-1; assay type: cell-based; details: Homo sapiens; KG-1, acute myeloid leukemia; after 72 hours of incubation
NOMO-1 [4] = test: Proliferation assay, NOMO-1; assay type: cell-based; details: Homo sapiens; NOMO-1, acute myeloid leukemia, 11q23 positive; after 72 hours of incubation
PL-21 = test: Proliferation assay, PL-21; assay type: cell-based; details: PL-21, acute myeloid leukemia; after 72 hours of incubation
MOLM-13 = test: Proliferation assay, MOLM-13; assay type: cell-based; details: Homo sapiens; MOLM-13, acute myeloid leukemia, 11q23 positive; after 72 hours of incubation
THP-1 = test: Subcutaneous THP-1 leukemia xenograft, efficacy and tolerability; assay type: in vivo, NOD/SCID mice
Protocol: as §1, §2, §3, §4, §5
(§12) At randomization, the volume of growing tumors was initially determined. […] The result of the randomization was documented and maintained with the experimental data. Animals not randomized were euthanized. The day of randomization is designated as day 0 of an experiment.
(§13) Vehicle: 80% (m/V) PEG400 in water for injection Compound A′: preparation of a dosing solution (2.5 mg/ml) once weekly by diluting the Compound A′ powder at 0.25% (w/v) in vehicle; storage of the dosing solution at 4° C.; dosing volume 10 ml/kg
as §6, §7, §8
(§14) Anti-tumor activity was evaluated as maximum tumor volume inhibition versus the vehicle control group. Data evaluation was performed using Oncotest proprietary software.
as §10
(§15) The minimum (or optimum) T/C % value recorded for a particular test group during an experiment represents the maximum anti-tumor activity for the respective treatment. T/C values were calculated if at least 50% of the randomized animals in a group were alive on the day in question.
(§16) Group optimum T/C values (in %) were used for activity rating as follows:
(§17) All leukemia models were implanted by subcutaneous injection of the corresponding cell line into female NOD/SCID mice. Compound A′ was administered orally at one dose level (25 mg/kg/day) in monotherapy once daily and treatment started once subcutaneous tumors were established. A vehicle-treated control group was included in each experiment. […] Anti-tumor activity (tumor growth inhibition) and tolerability of all groups were assessed using the vehicle control group as a reference.

NOMO-1 [5] = test: Subcutaneous NOMO-1 leukemia xenograft, efficacy and tolerability; assay type: in vivo, NOD/SCID mice
Protocol: as §1, §2, §3, §4, §5, §12, §13, §6, §7, §8, §14, §10, §15, §16, §17

OCI-AML-2 = test: Proliferation assay, OCI-AML-2; assay type: cell-based; details: Homo sapiens, OCI-AML2; OCI-AML-2, acute myeloid leukemia; after 72 hours of incubation
HL-60 [6] = test: Proliferation assay, HL-60; assay type: cell-based; details: Homo sapiens; HL-60, acute leukemia; after 72 hours of incubation with the substance
[7] = tested on: leukemia xenograft models MV4-11, NOMO-1, THP-1 and HL-60; test: Leukemia xenograft models, statements pooled over several models; assay type: in vivo; details: leukemia xenografts bearing mice, 25 mg/kg/day p.o.
Protocol: as §1, §2
Mouse strain, sex: NOD/SCID, female Animals supplied by: Harlan Total number of mice Efficacy test (implanted/randomized): 100/74 Approximate age at implantation: 5-7 weeks Approximate age at randomization: 6-9 weeks […]
as §11, §6, §7, §8

In the case of COc1cc(F)ccc1-c1ncnc(Nc2cccc(CS(C)(=N)=O)c2)n1 (single isomer, unassigned; (+)) [Compound A′, (+)-4-(4-Fluoro-2-methoxyphenyl)-N-{3-[(S-methylsulfonimidoyl)methyl]phenyl}-1,3,5-triazin-2-amine], the “Min. T/C” value (MV4-11 [1]; MV4-11 xenograft (11q23 translocation), 25 mg/kg/day p.o., days 0-25, minimum on day 14) is reported as 11.9 (14) %, the “anti-tumor activity (in words)” value (MV4-11 [1]; MV4-11 xenograft, 25 mg/kg/day p.o.) is reported as “High anti-tumor activity” and the “Activity Rating” value (MV4-11 [1]; MV4-11 xenograft, 25 mg/kg/day p.o., days 0-25, rating from group optimum T/C) is reported as “++ (High activity 10% ≦ T/C < 25%)”. For the same compound, the “Tumor growth versus vehicle control group” value (MV4-11 [1]; MV4-11 xenograft, Mann-Whitney-Wilcoxon U-test) was “significantly reduced; also recorded: significantly attenuated”, the “Min. T/C” value (HL-60 [2]; HL-60 xenograft (no 11q23 translocation), schedule days 0-6, 11-17, minimum on day 14, 25 mg/kg/day) was 63.9% and 63.9 (14) % and the “anti-tumor activity (in words)” value (HL-60 [2]; HL-60 xenograft) was “borderline anti-tumor activity”. For the same compound, the “Activity Rating” value (HL-60 [2]; HL-60 xenograft, days 0-6, 11-17, rating from group optimum T/C) was “+/− (Borderline activity 50% ≦ T/C < 65%)”, the IC50 (MV4-11 [3]) was 386 nM and the IC50 (KG-1) was 670 nM. It also gave an IC50 (NOMO-1 [4]) of 328 nM, an IC50 (PL-21) of 192 nM and an IC50 (MOLM-13) of 320 nM. For the same compound, the “Min. T/C” value (THP-1; THP-1 xenograft (11q23 translocation), 25 mg/kg/day p.o., days 0-25, minimum on day 14) was 21.0 (14) %, the “anti-tumor activity (in words)” value (THP-1; THP-1 xenograft, 25 mg/kg/day p.o.) was “High anti-tumor activity” and the “Activity Rating” value (THP-1; THP-1 xenograft, 25 mg/kg/day p.o., days 0-25, rating from group optimum T/C) was “+ (Moderate activity 25% ≦ T/C < 50%)”. The “group median BWL (body weight loss)” value (THP-1; THP-1 xenograft-bearing mice, 25 mg/kg/day p.o.) was “up to 0.4%”, the “Tumor growth versus vehicle control group” value (THP-1; THP-1 xenograft, Mann-Whitney-Wilcoxon U-test) was “significantly reduced; also recorded: significantly attenuated” and the “Min. T/C” value (NOMO-1 [5]; NOMO-1 xenograft (11q23 translocation), 25 mg/kg/day p.o., days 0-25, minimum on day 14) was 19.7 (14) %. For the same compound, the “anti-tumor activity (in words)” value (NOMO-1 [5]; NOMO-1 xenograft, 25 mg/kg/day p.o.) was “High anti-tumor activity”, the “Activity Rating” value (NOMO-1 [5]; NOMO-1 xenograft, 25 mg/kg/day p.o., days 0-25, rating from group optimum T/C) was “++ (High activity 10% ≦ T/C < 25%)” and the “group median BWL (body weight loss)” value (NOMO-1 [5]; NOMO-1 xenograft-bearing mice, 25 mg/kg/day p.o.) was “up to 0.4%”. The “Tumor growth versus vehicle control group” value (NOMO-1 [5]; NOMO-1 xenograft, Mann-Whitney-Wilcoxon U-test) was “significantly reduced; also recorded: significantly attenuated”, the IC50 (OCI-AML-2) was 323 nM and the IC50 (HL-60 [6]) was 1120 nM. For the same compound, the tolerability [7] was “acceptable tolerability profile”.
